Calls of active or inactive are those of the source.
Assays:
[1] = molecular target: Nucleotide-binding oligomerization domain-containing protein 2 (Homo sapiens, UniProt Q9HC29); assay: inhibition of NOD2-driven NF-kB reporter – cell-based, luminescence, uHTS, HEK293 (AID 1566); assay type: functional
[2] = loss of viability in HepG2 cells – cell-based, CellTiter-Glo, cherry-picked, cytotoxicity control for Shn3 inhibitor project, dose response (AID 624134); assay type: functional
HEK293 [3] = assay: cells; assay type: functional, cell-based; conditions: Homo sapiens
HEK293 [4] = assay: cells; assay type: functional, cell-based; conditions: Homo sapiens; remark: listed apart in the source
INS1 = assay: INS-1E survival protection against cytokine death – cell-based, luminescence, retest, dose response (AID 449756); assay type: functional; conditions: Rattus norvegicus;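 also: cell death triggered by IL-1 beta plus TNF-alpha plus IFN-gamma mixture; protective hits raise ATP signal compared with cytokine alone wells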
HEK293 [5] = assay: inhibition of NOD1-driven NF-kB reporter – cell-based, luminescence, uHTS, primary screen (AID 1578); assay type: functional; conditions: Homo sapiens
[6] = molecular target: T1, COUP transcription factor 2 (Homo sapiens, UniProt P24468); assay: Luminescence-based cell-based high throughput dose response assay to identify inhibitors of COUP-TFII (NR2F2).; assay type: functional;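 also: HEK293 cells transiently cotransfected with COUP-TFII expression vector and reporter; luciferase reporter luminescence driven by COUP-TFII from the pX2-168 reporter plasmid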
T1 sequence (P24468 whole entry): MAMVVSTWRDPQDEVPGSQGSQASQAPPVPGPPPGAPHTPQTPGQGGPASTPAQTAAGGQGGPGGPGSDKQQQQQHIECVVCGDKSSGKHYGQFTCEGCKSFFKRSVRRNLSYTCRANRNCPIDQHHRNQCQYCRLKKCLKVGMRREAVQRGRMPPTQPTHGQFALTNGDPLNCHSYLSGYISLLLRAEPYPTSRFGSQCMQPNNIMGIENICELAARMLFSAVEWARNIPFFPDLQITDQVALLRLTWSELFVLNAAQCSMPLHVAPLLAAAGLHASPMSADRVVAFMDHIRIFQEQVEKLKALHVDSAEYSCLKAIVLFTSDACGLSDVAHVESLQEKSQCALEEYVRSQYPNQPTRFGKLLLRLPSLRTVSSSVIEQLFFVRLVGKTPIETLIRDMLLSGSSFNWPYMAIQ

HEK293 [7] = assay: cells; assay type: functional, cell-based; conditions: Homo sapiens; remark: listed apart in the source
HEK293 [8] = assay: NOD2 signaling inhibitors in MDP-stimulated cells, cell-based, uHTS, luminescence (AID 2001); assay type: functional; conditions: Homo sapiens
[9] = reduction of Shn3 3'UTR-driven luciferase in osteoblasts – cell-based, Clone20 osteoblasts, firefly luciferase, cherry-picked, dose response (AID 624132); assay type: functional;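 also: firefly luciferase luminescence from reporter carrying the Shn3 3'UTR in osteoblasts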
[10] = Shn3 3'UTR reporter signal decrease – cell-based, Clone20 osteoblasts, firefly luciferase, cherry-pick, set 2, Schnurri-3 inhibitor project, dose response (AID 720490); assay type: functional;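 also: actives lower the luminescence signal as inhibitors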
[11] = molecular target: ATP-dependent molecular chaperone HSP82 (Candida albicans (strain WO-1) (Yeast), UniProt C4YTQ8); assay: steroid-induced GRE reporter decrease in yeast – S. cerevisiae, luminescence, Hsp90 inhibitor project, dose response (AID 2400); assay type: functional, cell-based;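 also: beta-galactosidase luminescence from glucocorticoid response element reporter as proxy for Hsp90 function; inhibitor potency where signal loss means Hsp90 inhibition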
[12] = fluconazole-exposed Candida albicans growth modulators – fluorescence, retest, confirmation (AID 2467); assay type: functional, cell-based
[13] = molecular target: T2, Serine/threonine-protein phosphatase (Candida dubliniensis (strain CD36 / CBS 7987 / NCPF 3949 / NRRLY-17841) (Yeast), UniProt B9W6M3); assay: Fluorescence Cell-Based Secondary Assay to Identify Inhibitors of Calcineurin. [Related pubchem assays (depositor defined):AID1979, AID2007]; assay type: functional
T2 sequence (B9W6M3 whole entry): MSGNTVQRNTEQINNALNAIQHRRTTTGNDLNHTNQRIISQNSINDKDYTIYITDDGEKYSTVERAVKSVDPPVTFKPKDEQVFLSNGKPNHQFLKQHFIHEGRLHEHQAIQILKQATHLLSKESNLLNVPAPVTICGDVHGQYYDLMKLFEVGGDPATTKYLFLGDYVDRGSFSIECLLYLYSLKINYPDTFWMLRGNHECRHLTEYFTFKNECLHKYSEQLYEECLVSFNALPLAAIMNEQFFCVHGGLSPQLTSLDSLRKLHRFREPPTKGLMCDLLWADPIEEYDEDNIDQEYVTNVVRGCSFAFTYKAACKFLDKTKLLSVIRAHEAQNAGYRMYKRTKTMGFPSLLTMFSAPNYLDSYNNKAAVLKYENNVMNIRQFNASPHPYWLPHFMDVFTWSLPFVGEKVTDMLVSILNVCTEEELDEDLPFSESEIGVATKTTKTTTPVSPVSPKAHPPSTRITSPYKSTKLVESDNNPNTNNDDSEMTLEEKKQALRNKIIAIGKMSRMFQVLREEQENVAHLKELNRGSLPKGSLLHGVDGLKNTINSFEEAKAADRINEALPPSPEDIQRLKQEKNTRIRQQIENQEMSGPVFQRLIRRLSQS

[14] = NIH-3T3 fibroblast cytotoxicity, dose response, cytotoxicity control, cell-based, fluorescence, Alamar Blue, secondary assay (AID 2327); assay type: functional;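 also: NIH-3T3 mouse fibroblasts cultured with fluconazole at 8 µg/mL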
[15] = molecular target: T2, Serine/threonine-protein phosphatase; assay: blockers of CaCl2-induced CDRE-lacZ signaling – S. cerevisiae, luminescence, secondary, dose response (AID 2388); assay type: functional, cell-based;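 also: yeast reporter cells carrying a calcineurin-responsive lacZ construct stimulated with calcium chloride; luminescent beta-galactosidase reporter signal in whole cells rather than isolated phosphatase activity; potency for inhibition where a drop in reporter signal means calcineurin blockade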
[16] = molecular target: T3, Microphthalmia-associated transcription factor (Homo sapiens, UniProt O75030); assay: reducers of TRPM1 reporter luminescence, concentration series – cell-based, SK-MEL-5, cherry-picked, set 3, MITF inhibitor project, dose response (AID 493073); assay type: functional;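 also: SK-MEL-5 melanoma cells with luciferase driven by the MITF target TRPM1 promoter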
T3 sequence (O75030 whole entry): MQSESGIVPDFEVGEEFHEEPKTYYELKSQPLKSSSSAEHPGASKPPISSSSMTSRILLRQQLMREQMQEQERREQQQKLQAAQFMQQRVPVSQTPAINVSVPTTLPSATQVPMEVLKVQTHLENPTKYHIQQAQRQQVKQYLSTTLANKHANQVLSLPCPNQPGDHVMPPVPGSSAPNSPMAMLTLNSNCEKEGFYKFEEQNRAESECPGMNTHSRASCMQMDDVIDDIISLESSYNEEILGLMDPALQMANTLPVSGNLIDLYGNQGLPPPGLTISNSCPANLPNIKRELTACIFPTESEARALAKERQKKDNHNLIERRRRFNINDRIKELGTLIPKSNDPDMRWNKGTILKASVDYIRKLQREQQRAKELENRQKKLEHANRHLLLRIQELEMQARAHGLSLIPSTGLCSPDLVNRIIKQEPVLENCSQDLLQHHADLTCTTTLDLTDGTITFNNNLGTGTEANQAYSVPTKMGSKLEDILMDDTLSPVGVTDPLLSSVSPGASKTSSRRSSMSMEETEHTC

[17] = toxicity toward HepG2 liver cells – cell-based, plate reader, cherry-pick, antagonist series, cytotoxicity control, dose response (AID 743416); assay type: functional
[18] = blockade of melanocortin 4 receptor signaling – cell-based, plate reader, cherry pick, counter-screen for LGR2 antagonist project, dose response (AID 743444); assay type: functional;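 also: transfected HEK 293 cells stimulated with alpha-MSH peptide; potency of inhibitors of the alpha-MSH evoked signal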
[19] = blockers of bursicon-stimulated LGR2 cAMP reporter – cell-based, HEK293, CRE-luciferase reporter, cherry pick, set 2, dose response (AID 743343); assay type: functional;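 also: transfected cells were stimulated with diluted bursicon conditioned medium after compound addition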
[20] = viability loss in HEK293 cells – cell-based, plate reader, cherry-picked samples, cytotoxicity control, dose response (AID 743446); assay type: functional
[21] = molecular target: T4, Heat shock factor protein 1 (Mus musculus, UniProt P38532); assay: decrease of HSF1-responsive luciferase luminescence – cell-based, NIH3T3, dose retest, confirmation (AID 2382); assay type: functional;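 also: NIH3T3 fibroblasts with HSF1-driven luciferase reporter stressed by proteasome inhibitor MG132; luminescence from HSF1-driven luciferase expression after 8 hours of MG132 stress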
T4 sequence (P38532 whole entry): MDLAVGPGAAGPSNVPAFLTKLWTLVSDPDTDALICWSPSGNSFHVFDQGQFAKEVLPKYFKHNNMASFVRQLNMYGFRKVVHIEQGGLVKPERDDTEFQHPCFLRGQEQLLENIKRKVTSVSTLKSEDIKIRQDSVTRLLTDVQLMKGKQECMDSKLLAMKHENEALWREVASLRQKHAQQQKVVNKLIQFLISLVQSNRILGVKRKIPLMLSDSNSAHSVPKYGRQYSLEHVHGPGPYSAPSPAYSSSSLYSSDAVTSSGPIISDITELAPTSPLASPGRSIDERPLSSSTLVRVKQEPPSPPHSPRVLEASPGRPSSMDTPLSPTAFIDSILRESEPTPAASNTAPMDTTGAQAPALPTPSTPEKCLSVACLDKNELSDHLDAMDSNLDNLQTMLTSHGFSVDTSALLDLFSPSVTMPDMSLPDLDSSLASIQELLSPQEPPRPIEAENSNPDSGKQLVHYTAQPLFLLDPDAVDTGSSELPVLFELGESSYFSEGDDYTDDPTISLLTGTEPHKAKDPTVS

[22] = A549 cell cytotoxicity, dose response, cytotoxicity control, plate reader, cherry-pick, antagonist series (AID 743412); assay type: functional, cell-based
[23] = molecular target: Photoreceptor-specific nuclear receptor (Homo sapiens, UniProt Q9Y5X4); assay type: functional, cell-based;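 also: CHO-S cells with Gal4-NCOR and VP16-NR2E3 two-hybrid luciferase reporter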
[24] = molecular target: T5, Dual specificity protein phosphatase 6 (Rattus norvegicus, UniProt Q64346)
T5 sequence (Q64346 whole entry): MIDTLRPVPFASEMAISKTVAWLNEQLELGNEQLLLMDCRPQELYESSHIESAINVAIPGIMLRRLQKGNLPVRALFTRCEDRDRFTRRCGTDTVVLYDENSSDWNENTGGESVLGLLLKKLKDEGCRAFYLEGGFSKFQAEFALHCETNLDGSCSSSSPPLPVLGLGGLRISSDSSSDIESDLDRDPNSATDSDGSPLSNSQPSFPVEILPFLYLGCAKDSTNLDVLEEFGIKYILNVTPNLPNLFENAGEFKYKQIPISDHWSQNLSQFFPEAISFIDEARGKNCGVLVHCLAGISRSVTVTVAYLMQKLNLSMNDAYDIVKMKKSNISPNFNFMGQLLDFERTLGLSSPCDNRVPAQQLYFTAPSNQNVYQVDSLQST

[25] = molecular target: T6, Tyrosine-protein phosphatase non-receptor type 7 (Homo sapiens, UniProt P35236); assay type: functional
T6 sequence (P35236 whole entry): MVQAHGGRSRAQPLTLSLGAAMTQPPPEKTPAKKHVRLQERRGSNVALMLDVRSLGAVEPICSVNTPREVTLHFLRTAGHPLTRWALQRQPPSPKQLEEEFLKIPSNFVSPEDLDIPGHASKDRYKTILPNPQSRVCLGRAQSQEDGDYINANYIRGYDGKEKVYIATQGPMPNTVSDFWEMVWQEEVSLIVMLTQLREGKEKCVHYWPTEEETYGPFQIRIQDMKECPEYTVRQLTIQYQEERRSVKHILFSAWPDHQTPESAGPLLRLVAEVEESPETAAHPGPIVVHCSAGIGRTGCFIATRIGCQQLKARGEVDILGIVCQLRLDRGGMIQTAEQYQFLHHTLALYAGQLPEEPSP

[26] = molecular target: Glyceraldehyde-3-phosphate dehydrogenase (Homo sapiens, UniProt P04406)
[27] = molecular target: T5, Dual specificity protein phosphatase 6; assay type: functional

Chain of Nucleotide-binding oligomerization domain-containing protein 2 (Q9HC29 whole entry, the tested form may be a part): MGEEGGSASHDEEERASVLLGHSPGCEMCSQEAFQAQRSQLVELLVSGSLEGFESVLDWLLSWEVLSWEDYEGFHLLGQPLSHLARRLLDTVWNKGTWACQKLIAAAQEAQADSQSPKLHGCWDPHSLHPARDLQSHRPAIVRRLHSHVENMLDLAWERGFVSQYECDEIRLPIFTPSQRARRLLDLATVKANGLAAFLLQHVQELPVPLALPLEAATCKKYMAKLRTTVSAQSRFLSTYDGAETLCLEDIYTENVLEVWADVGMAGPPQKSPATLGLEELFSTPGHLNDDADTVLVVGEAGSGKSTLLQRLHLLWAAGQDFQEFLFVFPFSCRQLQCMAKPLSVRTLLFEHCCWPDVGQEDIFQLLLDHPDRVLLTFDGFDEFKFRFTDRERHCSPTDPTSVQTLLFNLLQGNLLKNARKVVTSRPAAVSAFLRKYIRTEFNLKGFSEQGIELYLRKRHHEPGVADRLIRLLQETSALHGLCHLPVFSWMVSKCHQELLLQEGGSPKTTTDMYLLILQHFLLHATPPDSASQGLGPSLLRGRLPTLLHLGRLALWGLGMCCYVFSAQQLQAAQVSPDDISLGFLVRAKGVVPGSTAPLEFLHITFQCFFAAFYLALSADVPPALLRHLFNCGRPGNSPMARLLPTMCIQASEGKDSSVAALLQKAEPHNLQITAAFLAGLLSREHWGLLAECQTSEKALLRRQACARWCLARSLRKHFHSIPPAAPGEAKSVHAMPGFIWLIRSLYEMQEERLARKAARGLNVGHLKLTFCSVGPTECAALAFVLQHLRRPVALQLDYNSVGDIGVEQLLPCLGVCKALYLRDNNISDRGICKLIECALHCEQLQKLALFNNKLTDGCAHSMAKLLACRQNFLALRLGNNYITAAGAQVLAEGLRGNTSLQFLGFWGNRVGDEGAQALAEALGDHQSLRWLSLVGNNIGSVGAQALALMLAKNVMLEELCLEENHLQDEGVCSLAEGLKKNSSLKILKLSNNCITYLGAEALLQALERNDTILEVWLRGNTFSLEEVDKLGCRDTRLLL
Chain of Glyceraldehyde-3-phosphate dehydrogenase (P04406 whole entry): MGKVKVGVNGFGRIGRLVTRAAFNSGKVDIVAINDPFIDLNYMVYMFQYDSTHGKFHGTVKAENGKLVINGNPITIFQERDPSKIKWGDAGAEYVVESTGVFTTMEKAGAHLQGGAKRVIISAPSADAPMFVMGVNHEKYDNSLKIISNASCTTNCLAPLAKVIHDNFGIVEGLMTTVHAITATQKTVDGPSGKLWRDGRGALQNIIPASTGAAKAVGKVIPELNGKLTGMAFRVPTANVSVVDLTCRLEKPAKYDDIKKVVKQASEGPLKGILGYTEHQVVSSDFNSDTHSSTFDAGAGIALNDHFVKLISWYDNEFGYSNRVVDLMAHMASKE
Chain of Photoreceptor-specific nuclear receptor (Q9Y5X4 whole entry, the tested form may be a part): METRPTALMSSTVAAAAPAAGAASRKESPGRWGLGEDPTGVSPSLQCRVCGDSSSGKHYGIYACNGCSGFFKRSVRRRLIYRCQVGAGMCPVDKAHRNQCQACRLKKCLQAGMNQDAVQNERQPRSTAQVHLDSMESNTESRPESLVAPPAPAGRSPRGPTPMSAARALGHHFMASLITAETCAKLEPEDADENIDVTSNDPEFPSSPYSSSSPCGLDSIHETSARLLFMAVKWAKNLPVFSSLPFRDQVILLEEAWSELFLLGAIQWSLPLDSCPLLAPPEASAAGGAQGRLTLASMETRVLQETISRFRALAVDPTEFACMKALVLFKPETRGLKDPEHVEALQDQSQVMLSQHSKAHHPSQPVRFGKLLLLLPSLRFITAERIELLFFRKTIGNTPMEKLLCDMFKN
Chain of ATP-dependent molecular chaperone HSP82 (C4YTQ8 whole entry): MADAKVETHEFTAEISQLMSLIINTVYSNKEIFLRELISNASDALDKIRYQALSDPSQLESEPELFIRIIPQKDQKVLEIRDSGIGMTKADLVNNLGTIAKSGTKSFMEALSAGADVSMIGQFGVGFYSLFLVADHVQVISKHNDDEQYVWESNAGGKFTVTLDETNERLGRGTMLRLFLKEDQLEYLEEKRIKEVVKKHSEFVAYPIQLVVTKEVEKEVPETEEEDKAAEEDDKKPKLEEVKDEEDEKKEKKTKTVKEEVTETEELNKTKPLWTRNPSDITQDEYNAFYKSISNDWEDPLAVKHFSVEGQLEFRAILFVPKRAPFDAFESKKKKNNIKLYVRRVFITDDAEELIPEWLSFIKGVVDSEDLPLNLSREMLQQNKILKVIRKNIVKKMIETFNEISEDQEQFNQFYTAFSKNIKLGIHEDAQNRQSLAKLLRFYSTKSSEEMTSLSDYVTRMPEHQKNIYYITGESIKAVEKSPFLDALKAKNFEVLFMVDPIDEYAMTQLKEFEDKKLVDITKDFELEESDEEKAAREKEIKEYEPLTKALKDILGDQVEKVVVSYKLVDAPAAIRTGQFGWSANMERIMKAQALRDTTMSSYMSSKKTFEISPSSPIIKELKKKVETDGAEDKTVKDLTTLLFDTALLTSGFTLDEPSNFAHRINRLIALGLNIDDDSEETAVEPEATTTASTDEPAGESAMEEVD

SMILES: Cc1cc(S(=O)(=O)NCc2ccncc2)c(C)cc1Br
- EC50 [1]: 5.82 µM (active)
- AC50 [2]: 41.1 µM (active)
- IC50 (HEK293 [3]): > 20 µM (inactive)
- IC50 (HEK293 [4]): 9.24 µM (active)
- AC50 (INS1): 4.42 µM (active)
- EC50 (HEK293 [5]): 4.2 µM (active)
- IC50 [6]: 6.41 µM (active)
- IC50 (HEK293 [7]): > 20 µM (inactive)
- IC50 (HEK293 [8]): 17.9 µM (inactive)
- AC50 [9]: 1.23 µM (active)
- AC50 [10]: 1.02 µM (active)

SMILES: Cc1ccc(Nc2nc(N)c([N+](=O)[O-])c(N3CCC(C)CC3)n2)cc1C
- EC50 [11]: 4.42 µM (active)
- EC50 [12]: 0.207 µM (active)
- EC50 [13]: 9.17 µM (active)
- EC50 [14]: > 150 µM (inactive)
- EC50 [15]: > 180 µM (inactive)

SMILES: Cc1cc(C)c(C#N)c(SCc2nnc(-c3ccccc3)o2)n1
- AC50 [16]: 0.024 µM (active)
- EC50 [1]: < 0.31 µM (inactive)
- IC50 (HEK293 [3]): > 20 µM (inactive)
- AC50 [17]: > 52 µM (inactive)
- IC50 (HEK293 [4]): 6.41 µM (active)
- AC50 [18]: 0.321 µM (active)
- EC50 (HEK293 [5]): 10.5 µM (active)
- AC50 [19]: 0.281 µM (active)
- AC50 [20]: > 52 µM (inactive)
- EC50 [21]: < 0.16 µM (active)
- IC50 (HEK293 [7]): > 20 µM (inactive)
- AC50 [22]: > 52 µM (inactive)
- IC50 (HEK293 [8]): 12.6 µM (inactive)
- IC50 [23]: 35.7 µM (inactive)

SMILES: CCn1c(=O)n(C)c(=O)n([C@@H](Cc2ccccc2)C(N)=O)c1=O
- IC50 [24]: > 100 µM (inactive)
- IC50 [25]: > 100 µM (not active)
- IC50 [26]: > 100 µM (not active)
- IC50 [27]: > 100 µM (inactive)

Reference: ChEMBL document CHEMBL1201862, “PubChem BioAssay data set” (2004)
